Source: patent US8426462B2, “Ferrocene derivatives with anticancer activity” (Centre National de la Recherche Scientifique (CNRS), priority 2008, dated 2013)

Columns and labels:
[1] = tested on: MDA-MB-231 cells (non-hormone-dependent breast cancer cells); conditions: read-out: Antiproliferative effect (IC50)
Method: (§1) The antiproliferative effects of compounds of the invention were tested on MDA-MB-231 cells, which are non-hormone-dependent breast cancer cells, on PC-3 cells, which are non-hormone-dependent prostate cancer cells and on MCF-7 cells, which are hormone-dependent breast cancer cells.
(§2) The experimental method used for this test is described in Hillard E. A. et al. Chem. Med. Chem. 2006, 1, 551-559.

[2] = tested on: PC-3 cells (non-hormone-dependent prostate cancer cells); conditions: read-out: Antiproliferative effect (IC50)
Method: as §1, §2

[3] = tested on: MCF-7 cells (hormone-dependent breast cancer cells containing ERα); experiment: Proliferative/antiproliferative effect on MCF-7 cells; assay type: cell-based; conditions: for proliferative effect based on the control: MCF-7, without phenol red, 10^−8M; for IC50: MCF-7, approximate, estrogen effect plus cytotoxic activity, read-out: IC50 on MCF-7 line (converted)
Text: The purely cytotoxic effect appears at higher concentrations where the resultant of the two components (estrogen effect plus cytotoxic activity) is therefore evidenced. It is thus difficult to achieve very accurate IC50 values for the MCF-7 line.

Molecule	IC50 [1] [nM]	IC50 [2] [nM]	proliferative effect based on the control [3] [%]	IC50 [3] [nM]
1,1′-[1-[1,1-bis(4-hydroxyphenyl)methylidene]-2-methyltrimethylene]ferrocene [Compound 11]	630			
1,1′-[1-[1,1-bis(4-hydroxyphenyl)methylidene]trimethylene]ferrocene [Compound 4]	80	940	162	~4000
1,1′-[1-[(4-hydroxyphenyl)(phenyl)-methylidene]trimethylene]ferrocene [Compound 12]	470			
1,1′-[2-[1,1-bis(4-hydroxyphenyl)methylidene]trimethylene]ferrocene [Compound 5]	960	1080		~1000
1,2-[1-[1,1-bis(4-hydroxyphenyl)methylidene]tetramethylene]-ferrocene [Compound 9]	500			
1,2-[1-[1,1-bis(4-hydroxyphenyl)methylidene]trimethylene]ferrocene [Compound 8]	2700			
C[C@]12CC[C@@H]3c4ccc(O)cc4CC[C@H]3[C@@H]1CC[C@@H]2O [estradiol, reference compound]			264	
(R)-1,1′-[1-[1,1-bis(4-hydroxyphenyl)methylidene]-3-methyltrimethylene]ferrocene [Compound 7]	780			
(S)-1,1′-[1-[1,1-bis(4-hydroxyphenyl)methylidene]-3-methyltrimethylene]ferrocene [Compound 6]	2700			
